Reference: patent US4775677A, “[3-substituted-2-(substituted imino)-4-oxo-5-thiazolidinylidene]acetic acids having activity as leukotriene antagonists” (Warner-Lambert Company, priority 1987, dated 1988)

Target: leukotriene receptor
Assay: leukotriene receptor binding assay (RBL-1)
Details: Bruns et al
From the text: The usefulness of the compounds of Formula I is particularly directed to the treatment of humans. By virtue of the activity of the compounds having the Formula I of the present invention as antagonists of Slow Reacting Substance of Anaphylaxis (leukotrienes C, D, and E) are useful in the treatment of allergic rhinitis, asthma, bronchitis, and urticaria. They are also particularly useful for the treatment of cardiovascular diseases mediated by leukotrienes, C, D, and E. See B. Samuelsson, "Leukotrienes: Mediators of Immediate Hypersensitivity Reactions and Inflammation,"Science, Vol. 220, p. 568 (1983); P. J. Piper, "Leukotrienes," Trends in Pharmaceutic Sciences, pp. 75-77 (1983; and J. L. Romson, et al, "Reduction of the Extent of Ischemic Myocardial Injury by Neutrophil Depletion in the Dog," Circulation, Vol. 67, p. 1016 (1983). The activity of the compounds I of the present invention is determined in a leukotriene receptor binding assay (RBL-1) described by R. F. Bruns, W. J. Thomsen, and T. A. Pugsley in Life Sciences, 33, p. 645 (1983).
When tested by the procedures in a leukotriene receptor binding assay (RBL-1) as described by Bruns et al cited above, the compounds of the Formula I as defined in the present invention have the indicated activity as shown in Table 5 as IC50 values expressed in μMs (micromolar).

SMILES	IC50
COc1cc(N=C2SC(=CC(=O)O)C(=O)N2c2cc(OC)c(OC)c(OC)c2)cc(OC)c1OC [Example 6, [4-Oxo-3-(3,4,5-trimethoxyphenyl)-2-[(3,4,5-trimethoxyphenyl)imino]-5-thiazolidinylidene]acetic acid]	> 100 µM
COc1ccc(N=C2SC(=CC(=O)O)C(=O)N2c2ccc(OC)cc2)cc1 [Example 7, [4-Oxo-3-(4-methoxyphenyl)-2-[(4-methoxyphenyl)imino]-5-thiazolidinylidene]acetic acid]	> 100 µM
CCCN=C1SC(=CC(=O)O)C(=O)N1CCC [Example 8, [4-Oxo-3-propyl-2-(propylimino)-5-thiazolidinylidene]acetic acid]	> 100 µM
CCCCN=C1SC(=CC(=O)O)C(=O)N1CCCC [Example 9, [3-Butyl-2-(butylimino)-4-oxo-5-thiazolidinylidene]acetic acid]	> 100 µM
COc1ccccc1N=C1SC(=CC(=O)O)C(=O)N1c1ccccc1OC [Example 10, [3-(2-Methoxyphenyl)-2-[(2-methoxyphenyl)imino]-4-oxo-5-thiazolidinylidene]acetic acid]	> 100 µM
CN1C(=O)C(=CC(=O)O)SC1=Nc1ccc(Cl)c(Cl)c1 [Example 12, [2-[(3,4-dichlorophenyl)imino]-3-methyl-4-oxo-5-thiazolidinylidene]acetic acid]	> 100 µM
O=C(O)C=C1SC(=NCCc2ccccc2)N(CCc2ccccc2)C1=O [Example 15, [4-Oxo-3-(2-phenylethyl)-2-[(2-phenylethyl)imino]-5-thiazolidinylidene]acetic acid]	> 100 µM
CCCCCCCCCCCN=C1SC(=CC(=O)O)C(=O)N1CCCCCCCCCCC [Example 16, [3-Undecyl-2-(undecylimino)-4-oxo-5-thiazolidinylidene]acetic acid]	> 100 µM
CCCCCCCCCCN=C1SC(=CC(=O)O)C(=O)N1CCCCCCCCCC [Example 19, [3-Decyl-2-(decylimino)-4-oxo-5-thiazolidinylidene]acetic acid]	> 100 µM
CCCCCCCCCCCCN=C1SC(=CC(=O)O)C(=O)N1CCCCCCCCCCCC [Example 20, [3-Dodecyl-2-(dodecylimino)-4-oxo-5-thiazolidinylidene]acetic acid]	> 100 µM
COc1cccc(N=C2SC(=CC(=O)O)C(=O)N2c2cccc(OC)c2)c1 [Example 24, [3-(3-Methoxyphenyl)-2-[(3-methoxyphenyl)imino]-4-oxo-5-thiazolidinylidene]acetic acid]	> 100 µM

Other lines, results leading:

IC50	SMILES
19 µM	CCCCCCCCN=C1SC(=CC(=O)O)C(=O)N1CCCCCCCC [Example 1, [3-Octyl-2-(octylimino)-4-oxo-5-thiazolidinylidene]acetic acid]
> 100 µM	CCN=C1SC(=CC(=O)O)C(=O)N1CC [Example 2, [3-Ethyl-2-(ethylimino)-4-oxo-5-thiazolidinylidene]acetic acid]
15.4 µM	CCCCCN=C1SC(=CC(=O)O)C(=O)N1CCCCC [Example 3, [3-Pentyl-2-(pentylimino)-4-oxo-5-thiazolidinylidene]acetic acid]
24.5 µM	CCCCCCN=C1SC(=CC(=O)O)C(=O)N1CCCCCC [Example 4, [3-Hexyl-2-(hexylimino)-4-oxo-5-thiazolidinylidene]acetic acid]
12.2 µM	CCCCCCN1C(=O)C(=CC(=O)O)SC1=Nc1ccc(Cl)c(Cl)c1 [Example 11, [2-[(3,4-dichlorophenyl)imino]-3-hexyl-4-oxo-5-thiazolidinylidene]acetic acid]
39.2 µM	CCCCCCN1C(=O)C(=CC(=O)O)SC1=Nc1ccccc1 [Example 13, [3-Hexyl-4-oxo-2-(phenylimino)-5-thiazolidinylidene]acetic acid]
10.3 µM	CCCCCCN1C(=O)C(=CC(=O)O)SC1=Nc1cccc2ccccc12 [Example 17, [3-Hexyl-2-[(1-naphthalenyl)imino]-4-oxo-5-thiazolidinylidene]acetic acid]
12.7 µM	CCCCCCCN=C1SC(=CC(=O)O)C(=O)N1CCCCCCC [Example 18, [3-Heptyl-2-(heptylimino)-4-oxo-5-thiazolidinylidene]acetic acid]
15.6 µM	O=C(O)C=C1SC(=Nc2ccc(Cl)c(Cl)c2)N(c2ccc(Cl)c(Cl)c2)C1=O [Example 21, [4-oxo-3-(3,4-dichlorophenyl)-2-[(3,4-dichlorophenyl)imino]-5-thiazolidinylidene]acetic acid]
18.9 µM	O=C(O)C=C1SC(=Nc2ccc(Br)c(Br)c2)N(c2ccc(Br)c(Br)c2)C1=O [Example 22, [4-Oxo-3-(3,4-dibromophenyl)-2-[(3,4-dibromophenyl)imino]-5-thiazolidinylidene]acetic acid]
13.1 µM	O=C(O)C=C1SC(=Nc2cc(Cl)c(Cl)c(Cl)c2)N(c2cc(Cl)c(Cl)c(Cl)c2)C1=O [Example 23]
62.5 µM	O=C(O)C=C1SC(=NC2CCCCC2)N(C2CCCCC2)C1=O [Example 25, [3-Cyclohexyl-2-(cyclohexylimino)-4-oxo-5-thiazolidinylidene]acetic acid]
